According to patent publication US8618178B2, “Method and substances for treating T-cell mediated autoimmune diseases” (Eberhard-Karls-Universitaet Tuebingen Universitaetsklinikum, priority 2006, dated 2013):
Structures can show the parent of a compound that is named as a salt.

Legend:
IL-23 = IL-23 production by DC, ELISA of culture supernatants; assay type: cell-based, mouse
Description: (§1) IL-4, IL-10, IL-12 and interferon-γ were determined using the ELISA (enzyme linked immunosorbent assay) set or with the use of individual components from BD BioSciences. IL-23 in the supernatant was determined using the ELISA set (eBioscience). For intracytoplasmic cytokine analyses, the T cells were restimulated with PMA/ionomycin or with APC and peptide in the presence of brefeldin A, then fixed and permeabilized and stained. For the surface staining, anti-CD4 or KJ1-26 antibodies were used; the cytokine antibodies (PE labeled) were all obtained from BD Pharmingen.
(§2) As antigen presenting cells (APC), T cell depleted spleen cells from syngenic mice were used. Dendritic cells (DC) which were obtained from bone marrow (BMDC) and cultured with GM-CSF were used for the relevant experiments on day 7 of culturing. For the experiment, in each case an equal number of APC were cultured either with the medium alone, with L-BSO (C8H18N2O3S, 0.5 mM), dimethyl sulfoxide DMSO(C2H6OS), dimethyl fumarate DMF (C6H8O4, dissolved in DMSO, 70 μM), or calcium monomethyl fumarate (MMF; CaC10H10O8, 200 μM). All substances except for MMF (Fumapharm) were purchased from Sigma-Aldrich. At the respective stated times (see below) the cells were either analyzed directly for their GSH content, used for T cell stimulation or stimulated for […] with Escherichia coli lipopolysaccharides 055.B5 (Sigma-Aldrich) or CpG-DNA 1668 (MWG Biotech) and IL-4 (Stratmann). In order to raise the GSH level again, 1 mM GSH-OEt (C12H21N3O6S; Sigma-Aldrich) or 1 mM NAC (Sigma-Aldrich) was added. The GSH reservoirs in mice were depleted by feeding with DMF or MMF, and in man by treatment with Fumaderm®.

IL-10 = IL-10 production by DC, ELISA of culture supernatants; assay type: cell-based, mouse
Description: as §1
as §2, with “All substances except for MMF (Fumapharm) were purchased from Sigma-Aldrich.” left out, “In order to raise the GSH level again, 1 mM GSH-OEt (C12H21N3O6S; Sigma-Aldrich) or 1 mM NAC (Sigma-Aldrich) was added. The GSH reservoirs in mice were depleted by feeding with DMF or MMF, and in man by treatment with Fumaderm®.” left out

[1] = tested on: ovalbumin-specific CD4+ T cells; assay: Priming of ovalbumin-specific CD4+ T cells with treated DC, IFN-γ and IL-4 by ELISA; assay type: cell-based, mouse; conditions: restimulated with fresh APC and antigen
Description: as §1
(§3) The CD4+ T cells of DO11.10 mice were sorted using MACS magnet beads (Miltenyi Biotech). By culturing of DC on day seven with either medium and DMSO or DMF for 2 hours, DC^GSHhigh or DC^GSHlow could be generated. After four-hour stimulation with LPS or CpG-DNA/IL-4, the DC^GSHhigh or DC^GSHlow were used for the stimulation of DO11.10 T cells with 10 μg/ml ovalbumin peptide 323-339 for two days. The T cells were expanded with 50 U/ml IL-2 (Chiron Therapeutics). The cells were washed on day 10 and restimulated with fresh APC. The analysis was performed with the supernatants after 24 hrs. CD4^+ T cells were obtained from SJL mice immunized with PLP peptide using MACS magnet beads and stimulated with irradiated APC and PLP peptide 139-151 in the presence of L-BSO, DMF or only in medium as control. […]

PLP-specific T cells = assay: In vitro stimulation of PLP-specific T cells under GSH deprivation; assay type: cell-based, mouse
Description: as §3, with “hrs.” for “hrs. CD4^+ T cells were obtained from SJL mice immunized with PLP peptide using MACS magnet beads and stimulated with irradiated APC and PLP peptide 139-151 in the presence of L-BSO, DMF or only in medium as control.”
Spleen and lymph node CD4^+ T cells were stimulated with PLP (proteolipid protein) peptide 139-151 (10 μg/ml) and stimulated for four days with irradiated SJL-APC in the presence or absence of L-BSO (0.5 mM, Sigma), expanded for three to four days and then restimulated for cytokine production (proteolipid protein is the commonest myelin protein in the central nervous system and plays an important part as an autoantigen in the onset of multiple sclerosis). […] For the cytokine analysis of PLP-specific T cells, the draining lymph nodes of the SJL mice were removed 6 days after the immunization and CD4^+ T cells antigen-specifically analyzed (ELISPOT). […] After washing with H2O, the number of spots was determined in the ELISPOT reader (Biosys).

human DC = assay: GSH determination in human DC in vitro; assay type: cell-based
Description: Cellular GSH and GSSG were determined in micro-titer plate assays using colorimetric methods. The cellular GHS content is determined as a percentage of the GSH levels in freshly prepared controls or as pmol 10^−6 cells. GSSG was not detectable.
DC from human bone marrow (BMDC) (CD14^+) were isolated using MACS (Miltenyi Biotech) and incubated for seven days with IL-4 (500 U/ml, R & D Systems) and GM-CSF (Granulocyte-Monocyte Colony Stimulating Factor) (1000 U/ml (Immunonex)). GSX determination as under 1.3.

COC(=O)/C=C/C(=O)OC [DMF, dimethyl fumarate]
lowering of LPS-induced IL-23 production in DC cultivated from bone marrow (IL-23; LPS-induced): up to 10,000 fold
IL-23 production by DC (IL-23; after stimulation with LPS, compared to controls (DMSO)): markedly less
IL-10 production in DC (IL-10): rise in IL-10 production
IFN-γ production of TH cells induced by treated DC [1]: little IFN-γ
IL-4 production of TH cells induced by treated DC [1]: much IL-4
differentiation of PLP-specific T cells to Th1 and Th-17 (PLP-specific T cells): inhibits the differentiation of Th1 and Th-17
differentiation of PLP-specific T cells towards Th2 (PLP-specific T cells): promotes the differentiation towards Th2
GSH in human DC (human DC): depletes GSH
